Measured values taken from PubChem BioAssay (NCI).
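96-well plates; 48 h exposure; 5 concentrations. Endpoints by linear interpolation between flanking doses. Not reached: highest tested concentration assigned. The concentration for full growth arrest is given as TGI.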

Tests used:
Assay in all cases: growth of human tumour cells (NCI), 48 h
[1] = test system: SF-268 CNS
[2] = test system: SN12C renal
[3] = test system: SK-OV-3 ovarian
[4] = test system: SF-295 CNS
[5] = test system: NCI-H226 lung
[6] = test system: NCI-H460 lung
[7] = test system: SR leukemia
[8] = test system: HS 578T breast
[9] = test system: LOX IMVI melanoma
[10] = test system: M14 melanoma
[11] = test system: SK-MEL-5 melanoma
[12] = test system: UACC-62 melanoma
[13] = test system: SW-620 colon
[14] = test system: T-47D breast
[15] = test system: OVCAR-3 ovarian
[16] = test system: OVCAR-4 ovarian
[17] = test system: U251 CNS
[18] = test system: RXF 393 renal
[19] = test system: MOLT-4 leukemia
[20] = test system: NCI/ADR-RES ovarian
[21] = test system: HL-60(TB) leukemia
[22] = test system: HOP-62 NSCLC
[23] = test system: SK-MEL-2 melanoma
[24] = test system: KM12 colon
[25] = test system: HCT-15 colon
[26] = test system: MDA-N
[27] = test system: HT29 colon
[28] = test system: SNB-75 CNS
[29] = test system: K-562 leukemia
[30] = test system: MCF7 breast
[31] = test system: UO-31 renal
[32] = test system: SF-539 CNS
[33] = test system: PC-3 prostate
[34] = test system: NCI-H522 lung
[35] = test system: DU-145 prostate
[36] = test system: MALME-3M melanoma
[37] = test system: TK-10 renal
[38] = test system: HCC-2998 colon
[39] = test system: COLO 205 colon
[40] = test system: NCI-H23 lung
[41] = test system: SNB-19 CNS
[42] = test system: ACHN renal
[43] = test system: MDA-MB-435
[44] = test system: SK-MEL-28 melanoma
[45] = test system: EKVX NSCLC
[46] = test system: IGROV1 ovarian
[47] = test system: HCT-116 colon
[48] = test system: CCRF-CEM leukemia
[49] = test system: A549 NSCLC
[50] = test system: MDA-MB-231 breast
[51] = test system: OVCAR-8 ovarian
[52] = test system: OVCAR-5 ovarian
[53] = test system: BT-549 breast
[54] = test system: CAKI-1 renal
[55] = test system: RPMI-8226 leukemia
[56] = test system: UACC-257 melanoma
[57] = test system: 786-0 renal

CN(c1ccccc1Cl)S(=O)(=O)c1ccc([N+](=O)[O-])cc1
TGI [1]: > 100 µM | TGI [2]: > 100 µM | TGI [3]: > 100 µM | TGI [4]: > 100 µM | TGI [5]: > 100 µM | TGI [6]: > 100 µM | TGI [7]: > 100 µM | TGI [8]: > 100 µM | TGI [9]: > 100 µM | TGI [10]: > 100 µM | TGI [11]: > 100 µM | TGI [12]: > 100 µM | TGI [13]: > 100 µM | TGI [14]: > 100 µM | TGI [15]: > 100 µM | TGI [16]: > 100 µM | TGI [17]: > 100 µM | TGI [18]: > 100 µM | TGI [19]: > 100 µM | TGI [20]: > 100 µM | TGI [21]: > 100 µM | TGI [22]: > 100 µM | TGI [23]: > 100 µM | TGI [24]: > 100 µM | TGI [25]: > 100 µM | TGI [26]: > 100 µM | TGI [27]: > 100 µM | TGI [28]: > 100 µM | TGI [29]: > 100 µM | TGI [30]: > 100 µM | TGI [31]: > 100 µM | TGI [32]: > 100 µM | TGI [33]: > 100 µM | TGI [34]: > 100 µM | TGI [35]: > 100 µM | TGI [36]: > 100 µM | TGI [37]: > 100 µM | TGI [38]: > 100 µM | TGI [39]: > 100 µM | TGI [40]: > 100 µM | TGI [41]: > 100 µM | TGI [42]: > 100 µM | TGI [43]: > 100 µM | TGI [44]: > 100 µM | TGI [45]: > 100 µM | TGI [46]: > 100 µM | TGI [47]: > 100 µM | TGI [48]: > 100 µM | TGI [49]: > 100 µM | TGI [50]: > 100 µM | TGI [51]: > 100 µM | TGI [52]: > 100 µM | TGI [53]: > 100 µM | TGI [54]: > 100 µM | TGI [55]: > 100 µM | TGI [56]: > 100 µM | TGI [57]: > 100 µM

CC(=O)On1c(-c2ccccc2-c2nc3ccccc3n2OC(C)=O)nc2ccccc21
TGI [1]: > 100 µM | TGI [2]: > 100 µM | TGI [3]: > 100 µM | TGI [4]: > 100 µM | TGI [5]: > 100 µM | TGI [7]: > 100 µM | TGI [8]: > 100 µM | TGI [9]: > 100 µM | TGI [10]: > 100 µM | TGI [11]: 13.7 µM | TGI [12]: > 100 µM | TGI [13]: > 100 µM | TGI [14]: > 100 µM | TGI [15]: > 100 µM | TGI [17]: > 100 µM | TGI [19]: 71.1 µM | TGI [20]: > 100 µM | TGI [21]: 72.8 µM | TGI [22]: > 100 µM | TGI [23]: 88.6 µM | TGI [24]: > 100 µM | TGI [25]: > 100 µM | TGI [26]: > 100 µM | TGI [28]: > 100 µM | TGI [29]: > 100 µM | TGI [30]: > 100 µM | TGI [31]: > 100 µM | TGI [32]: > 100 µM | TGI [33]: 58.6 µM | TGI [34]: 51.5 µM | TGI [35]: > 100 µM | TGI [36]: > 100 µM | TGI [37]: > 100 µM | TGI [38]: > 100 µM | TGI [39]: 46 µM | TGI [40]: 76.6 µM | TGI [41]: > 100 µM | TGI [42]: > 100 µM | TGI [43]: > 100 µM | TGI [44]: > 100 µM | TGI [46]: > 100 µM | TGI [47]: > 100 µM | TGI [48]: > 100 µM | TGI [49]: > 100 µM | TGI [50]: > 100 µM | TGI [51]: > 100 µM | TGI [52]: > 100 µM | TGI [53]: > 100 µM | TGI [54]: > 100 µM | TGI [55]: 71 µM | TGI [56]: > 100 µM | TGI [57]: > 100 µM
